Source: ChEMBL document CHEMBL2021870, “Saponins can perturb biologic membranes and reduce the surface tension of aqueous solutions: a correlation?” (Bioorg Med Chem, 2012)

What was measured:
ECV-304 [1] = assay: Cytotoxicity against human ECV304 cells after 72 hrs by Hoechst 33258 staining based fluorescence assay; format: functional, cell-based; conditions: ECV-304, 72 h
[2] = Critical micellar concentration of the compound in 0.1 M PBS after 10 mins by Wilhelmy plate method using tensitometer; format: physicochemical; conditions: buffer
ECV-304 [3] = assay: Membranolytic activity in human ECV304 cells assessed as leakage of intracellular lactate dehydrogenase after 2 hrs by spectrophotometry; format: functional, cell-based; conditions: ECV-304, 2 h
[4] = Reduction in surface tension in 0.1 M PBS after 10 mins by Wilhelmy plate method using tensitometer; format: physicochemical

Row | SMILES | IC50 (ECV-304 [1]) [µM] | CMC [2] [µM] | IC50 (ECV-304 [3]) [µM] | EC50 at 10 min [4] [µM]
1 | C[C@@H]1O[C@@H](O[C@H]2[C@H](O[C@H]3CC[C@@]4(C)[C@@H](CC[C@]5(C)[C@@H]4CC=C4[C@@H]6CC(C)(C)CC[C@]6(C(=O)O)CC[C@]45C)[C@]3(C)CO)OC[C@H](O)[C@@H]2O)[C@H](O)[C@H](O)[C@H]1O [ALPHA-HEDERIN] | 35 | 13 | 29 | 4
2 | CC[C@H](CC[C@@H](C)[C@H]1CC[C@H]2[C@@H]3CC=C4C[C@@H](O)CC[C@]4(C)[C@H]3CC[C@]12C)C(C)C [BETA-SITOSTEROL] | 61 | 241 | 472 | 19
3 | C[C@@H]1CC[C@@]2(OC1)O[C@H]1[C@@H](O)[C@H]3[C@@H]4CC[C@H]5C[C@@H](O[C@@H]6O[C@H](CO)[C@H](O[C@@H]7O[C@H](CO)C(O)[C@H](O[C@@H]8OC[C@@H](O)[C@H](O)[C@H]8O)[C@H]7O[C@@H]7O[C@H](CO)[C@H](O)[C@H](O[C@@H]8O[C@H](CO)[C@@H](O)[C@H](O)[C@H]8O)[C@H]7O)[C@H](O)[C@H]6O)[C@H](O)C[C@]5(C)[C@H]4CC[C@]3(C)[C@H]1[C@@H]2C (some centres undefined) [DIGITONIN] | 13 | 163 | 15 | 8
4 | CC1(C)[C@@H](O)CC[C@]2(C)[C@H]3C(=O)C=C4[C@@H]5C[C@@](C)(C(=O)O)CC[C@]5(C)CC[C@@]4(C)[C@]3(C)CC[C@@H]12 [ENOXOLONE] | 101 | 106 | 292 | 16
5 | CC(C)=CCC[C@](C)(O)[C@H]1CC[C@]2(C)[C@@H]1[C@H](O)C[C@@H]1[C@@]3(C)CC[C@H](O)C(C)(C)[C@@H]3[C@@H](O[C@@H]3O[C@H](CO)[C@@H](O)[C@H](O)[C@H]3O[C@@H]3O[C@@H](C)[C@H](O)[C@@H](O)[C@H]3O)C[C@]12C [GINSENOSIDE RG2] | > 127 | > 127 | 783 | 25
6 | C[C@@H]1O[C@@H](O[C@H]2[C@H](O[C@H]3CC[C@@]4(C)[C@@H](CC[C@]5(C)[C@@H]4CC=C4[C@@H]6CC(C)(C)CC[C@]6(C(=O)O[C@@H]6O[C@H](CO[C@@H]7O[C@H](CO)[C@@H](O[C@@H]8O[C@@H](C)[C@H](O)[C@@H](O)[C@H]8O)[C@H](O)[C@H]7O)[C@@H](O)[C@H](O)[C@H]6O)CC[C@]45C)[C@]3(C)CO)OC[C@H](O)[C@@H]2O)[C@H](O)[C@H](O)[C@H]1O [KALOPANAXSAPONIN B] | > 164 | 82 | > 164 | 10
